Data on 4 compounds can be found in patent US9314497B2, “E2F as a target of hormone refractory prostate cancer” (RUTGERS, THE STATE UNIVERSITY OF NEW JERSEY, priority 2009, dated 2016).

The term IC50 denotes the concentration at which inhibition is half-maximal. A higher IC50 goes with a need for much substance.

Read-outs that look alike come from different tables or passages of the source. Where no end group is shown, it is not given here.

The subject of series [1] is tumor cell lines.
Experimental: (§2) The cells cultured in RPMI media and 10% fetal calf serum were treated with various concentrations of SEQ ID NO: 3 or SEQ ID NO: 19 at various concentrations for 24 hours and cell viability was determined using Vi-CELL automated cell counter.
Series [2] relates to normal human CD34 positive cells containing hematopoeitic progenitors (HSC). The conditions noted are these: 24 h exposure.
Series [3] deals with H-69 small cell carcinoma xenografts. In words: H-69 xenograft tumor size in nude mice. It counts as in vivo. Conditions: 30 or 60 mg/kg of PEP-2 in PEGylated liposomes, every 4 days. The protocol:
(§1) Nude mice bearing the H-69 small cell carcinoma xenografts were treated with PEP-2 encapsulated in PEGylated liposomes as previously described. Female mice (20-22 g) were inoculated […] with 10 million tumor cells suspended in 50 uL of PBS and an equal volume of matrigel. When the tumors were approximately 50 mm 3, the animals were randomized into groups of 6 and either treated with 0.06 ml of empty PEGylated liposomes, or 0.03 ml of PEGylated liposomes (30 mg/kg of PEP-2) or 0.06 ml of PEGylated liposomes (60 mg/kg of PEP-2), every 4 days. Tumor size (FIG. 10) and animal weight (FIG. 11) was measured every three days. […] Treatment of mice bearing advanced Tumors (FIG. 12) and mice with advanced tumors tolerate the encapsulated PEP-2 liposome treatment (FIG. 13).

A short description of series [4]: Tolerability in tumor-bearing nude mice. The conditions noted are these: 60 mg/kg dose; all animals recovered quickly. Type of series: in vivo. The protocol:
as §1

Series [5] relates to tumor cell lines. In words: Cell viability after 24 h treatment (Vi-CELL automated cell counter). Conditions: RPMI media and 10% fetal calf serum.
Experimental: as §2

As for `CC[C@H](C)[C@H](NC(=O)[C@H](CCCCN)NC(=O)[C@@H](NC(=O)[C@H](CCC(N)=O)NC(=O)[C@@H](N)CCCNC(=N)N)[C@@H](C)CC)C(=O)N[C@@H](Cc1c[nH]c2ccccc12)C(=O)N[C@@H](Cc1ccccc1)C(=O)N[C@@H](CCC(N)=O)C(=O)N[C@@H](CC(N)=O)C(=O)N[C@@H](CCCNC(=N)N)C(=O)N[C@@H](CCCNC(=N)N)C(=O)N[C@@H](CCSC)C(=O)N[C@@H](CCCCN)C(=O)N[C@@H](Cc1c[nH]c2ccccc12)C(=O)N[C@@H](CCCCN)C(=O)N[C@@H](CCCCN)C(=O)N[C@@H](Cc1c[nH]cn1)C(=O)N[C@@H](Cc1c[nH]cn1)C(=O)N[C@@H](Cc1c[nH]cn1)C(=O)N[C@@H](CCCNC(=N)N)C(=O)N[C@@H](CC(C)C)C(=O)N[C@@H](CO)C(=O)N[C@@H](Cc1c[nH]cn1)C(=O)O` [SEQ ID NO: 3], the “growth inhibition / cytotoxicity in tumor cell lines” value (shortened to “growth inhibition / cytotoxicity”) in the series with tumor cell lines [1] is “cytotoxic to most, but not all, tumor cell lines”. Besides, in series [2], the IC50 is over 80 µM.
As for “RQIKIWFQNRRIKWKKHHHRLSH (penetratin) [SEQ ID NO: 34]”, the tumor size result in series [3] is reported as “Decreases the Size of Tumors”. Further, the acute adverse effect result in series [4] is “acute transient distress”.
Regarding `CC[C@H](C)[C@H](NC(=O)[C@H](CCCCN)NC(=O)[C@@H](NC(=O)[C@H](CCC(N)=O)NC(=O)[C@@H](N)CCCNC(=N)N)[C@@H](C)CC)C(=O)N[C@@H](Cc1c[nH]c2ccccc12)C(=O)N[C@@H](Cc1ccccc1)C(=O)N[C@@H](CCC(N)=O)C(=O)N[C@@H](CC(N)=O)C(=O)N[C@@H](CCCNC(=N)N)C(=O)N[C@@H](CCCNC(=N)N)C(=O)N[C@@H](CCSC)C(=O)N[C@@H](CCCCN)C(=O)N[C@@H](Cc1c[nH]c2ccccc12)C(=O)N[C@@H](CCCCN)C(=O)N[C@@H](CCCCN)C(=O)N[C@@H](C)C(=O)N[C@@H](C)C(=O)N[C@@H](C)C(=O)N[C@H](C(=O)N[C@@H](CC(C)C)C(=O)N[C@@H](CO)C(=O)N[C@@H](C)C(=O)O)C(C)C` [SEQ ID NO: 19, reference compound], the “growth inhibition / cytotoxicity” value with tumor cell lines [1] is on record as “little or no effect on cell growth”.
HHHRLSH [SEQ ID NO: 1, HHHRLSH]: in the series on tumor cell lines [5], the “growth inhibition / cytotoxicity” value is listed as “did not inhibit growth”.
